According to ChEMBL document CHEMBL1201862, “PubChem BioAssay data set” (2004):
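Tested at 5 concentrations; 48 h exposure; 96-well plates; endpoints linearly interpolated, else capped at highest concentration. At the GI50, growth is halved.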 Activity calls are given as the source filed them. Rule as the data show it: active = GI50 up to about 1.1 µM and inactive = higher.

Assays:
Test in all cases: DTP human tumour cell line panel, 48 h
HT-29 = test system: HT-29
CAKI-1 = test system: CAKI-1
NCI-H522 = test system: NCI-H522
KM12 = test system: KM12
MDA-N = test system: MDA-N
SNB-19 = test system: SNB-19
IGROV-1 = test system: IGROV-1
SK-MEL-28 = test system: SK-MEL-28
K562 = test system: K562
UACC-62 = test system: UACC-62
MCF7 = test system: MCF7
786-0 = test system: 786-0
HL-60 = test system: HL-60
OVCAR-8 = test system: OVCAR-8
MDA-MB-231 = test system: MDA-MB-231
SF-295 = test system: SF-295
SR = test system: SR
HOP-62 = test system: HOP-62
NCI/ADR-RES = test system: NCI/ADR-RES
HOP-92 = test system: HOP-92
SK-OV-3 = test system: SK-OV-3
T47D = test system: T47D
MDA-MB-435 = test system: MDA-MB-435
RPMI-8226 = test system: RPMI-8226
OVCAR-5 = test system: OVCAR-5
M14 = test system: M14
OVCAR-4 = test system: OVCAR-4
CCRF-CEM = test system: CCRF-CEM
SNB-75 = test system: SNB-75
EKVX = test system: EKVX
SF-268 = test system: SF-268
NCI-H23 = test system: NCI-H23
NCI-H460 = test system: NCI-H460
HCC 2998 = test system: HCC 2998
TK-10 = test system: TK-10
UO-31 = test system: UO-31
NCI-H226 = test system: NCI-H226
COLO 205 = test system: COLO 205
U-251 = test system: U-251
PC-3 = test system: PC-3
UACC-257 = test system: UACC-257
LOX IMVI = test system: LOX IMVI
HCT-15 = test system: HCT-15
SK-MEL-2 = test system: SK-MEL-2
DU-145 = test system: DU-145
MOLT-4 = test system: MOLT-4
Hs-578T = test system: Hs-578T
Malme-3M = test system: Malme-3M
A549 = test system: A549
HCT-116 = test system: HCT-116
SN12C = test system: SN12C
RXF 393 = test system: RXF 393
SK-MEL-5 = test system: SK-MEL-5
ACHN = test system: ACHN
OVCAR-3 = test system: OVCAR-3
SF-539 = test system: SF-539
SW-620 = test system: SW-620

C#CC(O)/C=C/C(O)CCCC(O)CC#CC(O)C#CC(O)CCCC(O)/C=C/CCCC(=O)CCCCCCCCCCCCCCCC(O)C(O)C#CC(=O)O (stereo unspecified)
GI50 (HT-29): 28.1 µM (inactive)
GI50 (CAKI-1): > 50 µM (inactive)
GI50 (NCI-H522): 8.41 µM (inactive)
GI50 (KM12): > 50 µM (inactive)
GI50 (MDA-N): > 50 µM (inactive)
GI50 (SNB-19): > 50 µM (inactive)
GI50 (IGROV-1): 9.79 µM (inactive)
GI50 (SK-MEL-28): > 50 µM (inactive)
GI50 (K562): > 50 µM (inactive)
GI50 (UACC-62): > 50 µM (inactive)
GI50 (MCF7): > 50 µM (inactive)
GI50 (786-0): > 50 µM (inactive)
GI50 (HL-60): 13.2 µM (inactive)
GI50 (OVCAR-8): > 50 µM (inactive)
GI50 (MDA-MB-231): > 50 µM (inactive)
GI50 (SF-295): > 50 µM (inactive)
GI50 (SR): 19.3 µM (inactive)
GI50 (HOP-62): > 50 µM (inactive)
GI50 (NCI/ADR-RES): > 50 µM (inactive)
GI50 (HOP-92): > 50 µM (inactive)
GI50 (SK-OV-3): > 50 µM (inactive)
GI50 (T47D): > 50 µM (inactive)
GI50 (MDA-MB-435): > 50 µM (inactive)
GI50 (RPMI-8226): > 50 µM (inactive)
GI50 (OVCAR-5): > 50 µM (inactive)
GI50 (M14): > 50 µM (inactive)
GI50 (OVCAR-4): 12.5 µM (inactive)
GI50 (CCRF-CEM): 14.1 µM (inactive)
GI50 (SNB-75): 20.1 µM (inactive)
GI50 (EKVX): > 50 µM (inactive)
GI50 (SF-268): > 50 µM (inactive)
GI50 (NCI-H23): > 50 µM (inactive)
GI50 (NCI-H460): > 50 µM (inactive)
GI50 (HCC 2998): > 50 µM (inactive)
GI50 (TK-10): > 50 µM (inactive)
GI50 (UO-31): 10.8 µM (inactive)
GI50 (NCI-H226): > 50 µM (inactive)
GI50 (COLO 205): > 50 µM (inactive)
GI50 (U-251): > 50 µM (inactive)
GI50 (PC-3): > 50 µM (inactive)
GI50 (UACC-257): > 50 µM (inactive)
GI50 (LOX IMVI): 10.3 µM (inactive)
GI50 (HCT-15): > 50 µM
GI50 (SK-MEL-2): > 50 µM (inactive)
GI50 (DU-145): > 50 µM (inactive)
GI50 (MOLT-4): 43.6 µM (inactive)
GI50 (Hs-578T): > 50 µM (inactive)
GI50 (Malme-3M): > 50 µM (inactive)
GI50 (A549): > 50 µM (inactive)
GI50 (HCT-116): > 50 µM (inactive)
GI50 (SN12C): > 50 µM (inactive)
GI50 (RXF 393): > 50 µM (inactive)
GI50 (SK-MEL-5): > 50 µM (inactive)
GI50 (ACHN): > 50 µM (inactive)

O=Cc1[nH]c(=O)[nH]c(=O)c1C(=O)O
GI50 (HT-29): > 100 µM (inactive)
GI50 (CAKI-1): > 100 µM (inactive)
GI50 (NCI-H522): > 100 µM (inactive)
GI50 (KM12): > 100 µM (inactive)
GI50 (MDA-N): > 100 µM (inactive)
GI50 (SNB-19): > 100 µM (inactive)
GI50 (IGROV-1): > 100 µM (inactive)
GI50 (SK-MEL-28): > 100 µM (inactive)
GI50 (K562): > 100 µM (inactive)
GI50 (UACC-62): > 100 µM (inactive)
GI50 (MCF7): > 100 µM (inactive)
GI50 (786-0): > 100 µM (inactive)
GI50 (HL-60): > 100 µM (inactive)
GI50 (OVCAR-8): > 100 µM (inactive)
GI50 (MDA-MB-231): > 100 µM (inactive)
GI50 (SF-295): > 100 µM (inactive)
GI50 (SR): > 100 µM (inactive)
GI50 (HOP-62): > 100 µM (inactive)
GI50 (NCI/ADR-RES): > 100 µM (inactive)
GI50 (HOP-92): > 100 µM (inactive)
GI50 (SK-OV-3): > 100 µM (inactive)
GI50 (T47D): > 100 µM (inactive)
GI50 (MDA-MB-435): > 100 µM (inactive)
GI50 (RPMI-8226): > 100 µM (inactive)
GI50 (OVCAR-5): > 100 µM (inactive)
GI50 (OVCAR-3): > 100 µM (inactive)
GI50 (M14): > 100 µM (inactive)
GI50 (OVCAR-4): > 100 µM (inactive)
GI50 (CCRF-CEM): > 100 µM (inactive)
GI50 (SNB-75): 43.8 µM (inactive)
GI50 (EKVX): > 100 µM (inactive)
GI50 (SF-268): > 100 µM (inactive)
GI50 (NCI-H23): > 100 µM (inactive)
GI50 (NCI-H460): > 100 µM (inactive)
GI50 (HCC 2998): > 100 µM (inactive)
GI50 (TK-10): > 100 µM (inactive)
GI50 (UO-31): > 100 µM (inactive)
GI50 (NCI-H226): > 100 µM (inactive)
GI50 (SF-539): > 100 µM (inactive)
GI50 (SW-620): > 100 µM (inactive)
GI50 (COLO 205): > 100 µM (inactive)
GI50 (U-251): > 100 µM (inactive)
GI50 (PC-3): > 100 µM (inactive)
GI50 (UACC-257): > 100 µM (inactive)
GI50 (LOX IMVI): > 100 µM (inactive)
GI50 (HCT-15): > 100 µM
GI50 (SK-MEL-2): > 100 µM (inactive)
GI50 (DU-145): > 100 µM (inactive)
GI50 (MOLT-4): > 100 µM (inactive)
GI50 (Hs-578T): > 100 µM (inactive)
GI50 (Malme-3M): > 100 µM (inactive)
GI50 (A549): > 100 µM (inactive)
GI50 (HCT-116): > 100 µM (inactive)
GI50 (SN12C): > 100 µM (inactive)
GI50 (RXF 393): > 100 µM (inactive)
GI50 (SK-MEL-5): > 100 µM (inactive)
GI50 (ACHN): > 100 µM (inactive)
